Measurements as given in the NIST ThermoML archive (doi:10.1016/j.jct.2015.05.024).
Numbers after ± are expanded uncertainties.

Experiment: xn = mol fraction of the nth substance listed
Conditions: 100 kPa, Liquid; for mass density: Vibrating tube method; for speed of sound: Frequency=5 MHz, Pulse-echo method

OCCOCCOCCO [triethylene glycol] + O
Conditions	mass density [kg/m3]	speed of sound [m/s]
313.15 K, x1 = 0.8975	1107.54 ± 0.28	–
313.15 K, x1 = 0.9203	1107.65 ± 0.29	–
313.15 K, x1 = 0.9514	1107.8 ± 0.3	–
313.15 K, x1 = 0.9692	1107.89 ± 0.3	–
313.15 K, x1 = 1	1108.03 ± 0.32	–
318.15 K, x1 = 0.000584	–	1538.5 ± 1.2
318.15 K, x1 = 0.002006	–	1542.9 ± 1.2
318.15 K, x1 = 0.004375	–	1550 ± 1.2
318.15 K, x1 = 0.01026	–	1566.6 ± 1.1
318.15 K, x1 = 0.0107	1001.51 ± 0.23	–
318.15 K, x1 = 0.01483	–	1578.5 ± 1.1
318.15 K, x1 = 0.02047	1010.75 ± 0.2	–
318.15 K, x1 = 0.0207	–	1592.6 ± 1.1
318.15 K, x1 = 0.02817	–	1608.6 ± 1.1
318.15 K, x1 = 0.0344	–	1620.5 ± 1.1
318.15 K, x1 = 0.03972	1026.32 ± 0.19	–
318.15 K, x1 = 0.04361	–	1635.9 ± 1.1
318.15 K, x1 = 0.04979	1033.27 ± 0.17	–
318.15 K, x1 = 0.05146	–	1647.1 ± 1.1
318.15 K, x1 = 0.05903	–	1656.4 ± 1.1
318.15 K, x1 = 0.06571	–	1663.4 ± 1.1
318.15 K, x1 = 0.06996	1045.13 ± 0.15	–
318.15 K, x1 = 0.07299	–	1670 ± 1.1
318.15 K, x1 = 0.08294	–	1677.4 ± 1.1
318.15 K, x1 = 0.09126	–	1682.2 ± 1.1
318.15 K, x1 = 0.09424	1056.41 ± 0.14	–
318.15 K, x1 = 0.09661	–	1684.8 ± 1.1
318.15 K, x1 = 0.1018	–	1686.8 ± 1.1
318.15 K, x1 = 0.1056	–	1688.1 ± 1.1
318.15 K, x1 = 0.1135	–	1690.2 ± 1.1
318.15 K, x1 = 0.1255	–	1692.2 ± 1.1
318.15 K, x1 = 0.1394	–	1692.8 ± 1.1
318.15 K, x1 = 0.1396	–	1692.8 ± 1.1
318.15 K, x1 = 0.1432	–	1692.7 ± 1.1
318.15 K, x1 = 0.1481	1073.27 ± 0.14	–
318.15 K, x1 = 0.1521	–	1692.1 ± 1.1
318.15 K, x1 = 0.1731	–	1689 ± 1.1
318.15 K, x1 = 0.1931	–	1684.5 ± 1.1
318.15 K, x1 = 0.2006	1082.92 ± 0.14	–
318.15 K, x1 = 0.2076	–	1680.7 ± 1.1
318.15 K, x1 = 0.2502	1088.64 ± 0.14	–
318.15 K, x1 = 0.2511	–	1667.7 ± 1.1
318.15 K, x1 = 0.2988	1092.38 ± 0.14	–
318.15 K, x1 = 0.3044	–	1651.8 ± 1.1
318.15 K, x1 = 0.3492	1095.09 ± 0.15	–
318.15 K, x1 = 0.3572	–	1637.7 ± 1.1
318.15 K, x1 = 0.3925	1096.8 ± 0.16	–
318.15 K, x1 = 0.4142	–	1624.4 ± 1.1
318.15 K, x1 = 0.4502	1098.53 ± 0.17	–
318.15 K, x1 = 0.4877	1099.4 ± 0.17	–
318.15 K, x1 = 0.4989	–	1607.6 ± 1.2
318.15 K, x1 = 0.5004	1099.66 ± 0.17	–
318.15 K, x1 = 0.5739	1100.92 ± 0.19	–
318.15 K, x1 = 0.58	1101 ± 0.19	–
318.15 K, x1 = 0.6427	–	1585.5 ± 1.2
318.15 K, x1 = 0.6465	1101.82 ± 0.2	–
318.15 K, x1 = 0.651	1101.87 ± 0.2	–
318.15 K, x1 = 0.7008	1102.35 ± 0.22	–
318.15 K, x1 = 0.7471	1102.73 ± 0.23	–
318.15 K, x1 = 0.7677	1102.88 ± 0.23	–
318.15 K, x1 = 0.7971	–	1571.3 ± 1.3
318.15 K, x1 = 0.82	1103.22 ± 0.25	–
318.15 K, x1 = 0.8623	1103.46 ± 0.26	–
318.15 K, x1 = 0.8792	1103.55 ± 0.27	–
318.15 K, x1 = 0.8865	–	1565.1 ± 1.3
318.15 K, x1 = 0.8975	1103.64 ± 0.27	–
318.15 K, x1 = 0.9203	1103.76 ± 0.28	–
318.15 K, x1 = 0.9514	1103.9 ± 0.29	–
318.15 K, x1 = 0.9641	–	1559.6 ± 1.4
318.15 K, x1 = 0.9692	1103.99 ± 0.3	–
318.15 K, x1 = 1	1104.13 ± 0.31	1554.7 ± 1.4
323.15 K, x1 = 0.0107	999.177 ± 0.23	–
323.15 K, x1 = 0.02047	1008.26 ± 0.2	–
323.15 K, x1 = 0.03972	1023.56 ± 0.19	–
323.15 K, x1 = 0.04979	1030.37 ± 0.17	–
323.15 K, x1 = 0.06996	1041.99 ± 0.15	–
323.15 K, x1 = 0.09424	1053.04 ± 0.14	–
323.15 K, x1 = 0.1481	1069.57 ± 0.13	–
323.15 K, x1 = 0.2006	1079.07 ± 0.14	–
323.15 K, x1 = 0.2502	1084.73 ± 0.14	–
323.15 K, x1 = 0.2988	1088.45 ± 0.14	–
323.15 K, x1 = 0.3492	1091.15 ± 0.15	–
323.15 K, x1 = 0.3925	1092.88 ± 0.15	–
323.15 K, x1 = 0.4502	1094.61 ± 0.16	–
323.15 K, x1 = 0.4877	1095.48 ± 0.17	–
323.15 K, x1 = 0.5004	1095.75 ± 0.17	–
323.15 K, x1 = 0.5739	1097.01 ± 0.19	–
323.15 K, x1 = 0.58	1097.09 ± 0.19	–
323.15 K, x1 = 0.6465	1097.92 ± 0.2	–
323.15 K, x1 = 0.651	1097.96 ± 0.2	–
323.15 K, x1 = 0.7008	1098.44 ± 0.21	–
323.15 K, x1 = 0.7471	1098.82 ± 0.23	–
323.15 K, x1 = 0.7677	1098.97 ± 0.23	–
323.15 K, x1 = 0.82	1099.31 ± 0.24	–
323.15 K, x1 = 0.8623	1099.56 ± 0.26	–
323.15 K, x1 = 0.8792	1099.64 ± 0.27	–
323.15 K, x1 = 0.8975	1099.74 ± 0.27	–
323.15 K, x1 = 0.9203	1099.85 ± 0.28	–
323.15 K, x1 = 0.9514	1100 ± 0.29	–
323.15 K, x1 = 0.9692	1100.08 ± 0.3	–
323.15 K, x1 = 1	1100.22 ± 0.31	–
328.15 K, x1 = 0.0107	996.693 ± 0.22	–
328.15 K, x1 = 0.02047	1005.64 ± 0.2	–
328.15 K, x1 = 0.03972	1020.67 ± 0.19	–
328.15 K, x1 = 0.04979	1027.35 ± 0.16	–
328.15 K, x1 = 0.06996	1038.74 ± 0.15	–
328.15 K, x1 = 0.09424	1049.58 ± 0.14	–
328.15 K, x1 = 0.1481	1065.82 ± 0.13	–
328.15 K, x1 = 0.2006	1075.2 ± 0.13	–
328.15 K, x1 = 0.2502	1080.82 ± 0.14	–
328.15 K, x1 = 0.2988	1084.52 ± 0.14	–
328.15 K, x1 = 0.3492	1087.21 ± 0.15	–
328.15 K, x1 = 0.3925	1088.93 ± 0.15	–
328.15 K, x1 = 0.4502	1090.66 ± 0.16	–
328.15 K, x1 = 0.4877	1091.55 ± 0.17	–
328.15 K, x1 = 0.5004	1091.81 ± 0.17	–
328.15 K, x1 = 0.5739	1093.08 ± 0.18	–
328.15 K, x1 = 0.58	1093.16 ± 0.19	–
328.15 K, x1 = 0.6465	1093.99 ± 0.2	–
328.15 K, x1 = 0.651	1094.04 ± 0.2	–
328.15 K, x1 = 0.7008	1094.53 ± 0.21	–
328.15 K, x1 = 0.7471	1094.91 ± 0.22	–
328.15 K, x1 = 0.7677	1095.06 ± 0.23	–
328.15 K, x1 = 0.82	1095.4 ± 0.24	–
328.15 K, x1 = 0.8623	1095.64 ± 0.26	–
328.15 K, x1 = 0.8792	1095.73 ± 0.26	–
328.15 K, x1 = 0.8975	1095.83 ± 0.27	–
328.15 K, x1 = 0.9203	1095.94 ± 0.28	–
328.15 K, x1 = 0.9514	1096.09 ± 0.29	–
328.15 K, x1 = 0.9692	1096.17 ± 0.29	–
328.15 K, x1 = 1	1096.3 ± 0.31	–
333.15 K, x1 = 0.0107	994.065 ± 0.22	–
333.15 K, x1 = 0.02047	1002.89 ± 0.19	–
333.15 K, x1 = 0.03972	1017.67 ± 0.18	–
333.15 K, x1 = 0.04979	1024.24 ± 0.16	–
333.15 K, x1 = 0.06996	1035.42 ± 0.15	–
333.15 K, x1 = 0.09424	1046.06 ± 0.14	–
333.15 K, x1 = 0.1481	1062.02 ± 0.13	–
333.15 K, x1 = 0.2006	1071.28 ± 0.13	–
333.15 K, x1 = 0.2502	1076.84 ± 0.14	–
333.15 K, x1 = 0.2988	1080.53 ± 0.14	–
333.15 K, x1 = 0.3492	1083.23 ± 0.15	–
333.15 K, x1 = 0.3925	1084.95 ± 0.15	–
333.15 K, x1 = 0.4502	1086.7 ± 0.16	–
333.15 K, x1 = 0.4877	1087.58 ± 0.17	–
333.15 K, x1 = 0.5004	1087.85 ± 0.17	–
333.15 K, x1 = 0.5739	1089.13 ± 0.18	–
333.15 K, x1 = 0.58	1089.21 ± 0.18	–
333.15 K, x1 = 0.6465	1090.05 ± 0.2	–
333.15 K, x1 = 0.651	1090.1 ± 0.2	–
333.15 K, x1 = 0.7008	1090.59 ± 0.21	–
333.15 K, x1 = 0.7471	1090.97 ± 0.22	–
333.15 K, x1 = 0.7677	1091.13 ± 0.23	–
333.15 K, x1 = 0.82	1091.47 ± 0.24	–
333.15 K, x1 = 0.8623	1091.71 ± 0.25	–
333.15 K, x1 = 0.8792	1091.81 ± 0.26	–
333.15 K, x1 = 0.8975	1091.9 ± 0.27	–
333.15 K, x1 = 0.9203	1092.01 ± 0.27	–
333.15 K, x1 = 0.9514	1092.16 ± 0.28	–
333.15 K, x1 = 0.9692	1092.24 ± 0.29	–
333.15 K, x1 = 1	1092.38 ± 0.3	–
